Values of other authors in publication PMC6182381, “Population Pharmacokinetics and Exposure-Response Relationships of Naldemedine” (Pharmaceutical Research, 2018).

Parameters: method as in earlier work
Details: cited from earlier work

Structure (SMILES): N=C(N)c1ccccc1 [Benzamidine]
- metabolite excreted in feces: ~20 % of the administered dose of naldemedine
- metabolite excreted in urine: approximately 32 % of the administered dose of naldemedine
